Data from patent publication US20100260680A1, “NOVEL BONE MASS INCREASING AGENT” (ORIENTAL YEAST CO., LTD., priority 2007, published 2010).
Bridges are numbered along the chain shown (N, C = ends). Where no end group is shown, it is not given here.

Key:
mouse tibia = assay: RT-PCR of osteogenesis markers in tibia of mice given peptide D; format: in vivo; conditions: peptide D acetate 10 mg/kg s.c. three times daily for 5 days
Procedure: Synthetic peptide D subjected to substitution with an acetate was used in this experiment. The synthetic peptide D was dissolved in PBS at a concentration of 1 mg/mL. PBS was administered to a control group.
Subcutaneous administration of synthetic peptide D in the form of acetate was carried out in a dose of 10 mg/kg at 8:00, 14:00, and 20:00 (three times daily) for 5 days. PBS was administered to the control group. Mice were dissected 12 hour after the completion of administration for 5 days and subjected to exsanguination. Thereafter, the femur and the tibia were collected from each mouse. The whole blood of each mouse was left at room temperature for 1 hour and then centrifuged under conditions of 5000 rpm and 4° C. for 5 min. The serum was collected in a new tube. The femur and the tibia of each mouse were fixed with cold 70% ethanol. Muscles and the like were carefully removed from each tibia. Then, each tibia was washed with PBS and cut into 1-mm fragments with scissors, followed by freezing with liquid nitrogen. […]
After cDNA synthesis, as in the case of Example 23, PCR was performed using primers specific to mouse alkaline phosphatase (mALP), mouse type I collagen αI chain (mCollagen αI), and mouse osteocalcin (mOC). […] The obtained images were analyzed with a CSAnalyzer and standardized based on the GAPDH expression levels. […]

C2C12 cells = assay: ALP activity determination in C2C12 cells; format: cell-based, mouse; conditions: 6 days
MAP kinase p38 = assay: Western blotting of p38 phosphorylation in MC3T3-E1 cells; format: cell-based, mouse; conditions: 200 μM peptide D
Procedure: MC3T3-E1 cells mixed with 10% FBS+αMEM (SIGMA) were seeded on a 6-well plate (7.5×10^4 cells/well). […] The medium was removed at the respective time points shown in the relevant figures. PBS was added to the cells, and the cells were collected with a scraper (Falcon). A cell pellet was obtained via centrifugation at 1200 rpm for 5 min at 4° C. RIPA buffer (100 μL) was added to the collected pellet, for dissolution of the cellular membrane. Further, the resultant was centrifuged under conditions of 14500 rpm for 25 min at 4° C. The supernatant was collected as a cell extract. A portion of the cell extract was used for quantification of the protein concentration with the use of a BCA protein assay kit (PIERCE). For SDS-PAGE, a sample buffer in an amount that was ¼ that of the cell extract (Fermentas) was added thereto, followed by heating at 95° C. for 5 min. The prepared sample was applied in an amount of 7.5 or 10 μg to 10% polyacrylamide gel (BioRad), followed by electrophoresis at 170 V for 1 hour. After electrophoresis, the electrophoresed sample was transferred to a PVDF membrane (Millipore) at 80 mA for 40 min. The membrane was shaken in a blocking solution (Nacalai) at room temperature for 1 hour and then a primary antibody was added thereto, followed by shaking at room temperature for 1 hour at 4° C. for 12 hours. […]

For “peptide D: cyclic peptide of SEQ ID NO: 7, 9 amino acids, two cysteine residues bound via a disulfide bond; binds to RANKL (YCWSQYLCY; disulfide 2-8 (inferred))”, the “expression levels of mALP, mCollagen αI and mOC in tibia” value (mouse tibia) was “increase in the expression level of each factor”, the ALP activity (C2C12 cells; 50 μM peptide D alone) was “actions of ALP activity enhancement were not observed” and the “increase in the ALP activity relative to BMP-2 alone” value (C2C12 cells; 50 μM peptide D combined with 100 ng/mL BMP-2) was “at least 5 times”. For the same substance, the p38 phosphorylation (MAP kinase p38; 12 hours after the addition) was “significant p38 phosphorylation” and the p38 phosphorylation (MAP kinase p38; within a short period of time after the addition) was “no significant changes”.
